Source: ChEMBL document CHEMBL2016526, “3-(N-arylsulfamoyl)benzamides, inhibitors of human sirtuin type 2 (SIRT2)” (Bioorg Med Chem Lett, 2012)
Each block holds one molecule with its values, some of them ahead of it. The source made the active and inactive calls. The calls are words filed in the database; no cut-off is given here.

Tests used:
[1] = biological target: T1, NAD-dependent protein deacetylase sirtuin-2 (Homo sapiens) (UniProt Q8IXJ6); assay: Inhibition of recombinant SIRT2 assessed as lysine deacetylation at 25 uM relative to control; design: scale not given: the % may be the effect or the level left
T1 sequence (whole entry): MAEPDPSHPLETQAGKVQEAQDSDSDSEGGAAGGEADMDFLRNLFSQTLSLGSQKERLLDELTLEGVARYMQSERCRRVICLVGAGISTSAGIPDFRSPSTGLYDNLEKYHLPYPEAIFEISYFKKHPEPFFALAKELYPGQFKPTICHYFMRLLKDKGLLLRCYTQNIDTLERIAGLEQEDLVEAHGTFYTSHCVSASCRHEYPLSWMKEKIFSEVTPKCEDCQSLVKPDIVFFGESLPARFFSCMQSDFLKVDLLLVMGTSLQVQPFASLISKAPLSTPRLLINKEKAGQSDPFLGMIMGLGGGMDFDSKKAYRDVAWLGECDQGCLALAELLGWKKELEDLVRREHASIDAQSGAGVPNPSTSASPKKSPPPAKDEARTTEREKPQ

[2] = biological target: T2, NAD-dependent protein deacetylase sirtuin-1 (Homo sapiens) (UniProt Q96EB6); assay: Inhibition of recombinant SIRT1 assessed as lysine deacetylation at 10 uM
T2 sequence (whole entry): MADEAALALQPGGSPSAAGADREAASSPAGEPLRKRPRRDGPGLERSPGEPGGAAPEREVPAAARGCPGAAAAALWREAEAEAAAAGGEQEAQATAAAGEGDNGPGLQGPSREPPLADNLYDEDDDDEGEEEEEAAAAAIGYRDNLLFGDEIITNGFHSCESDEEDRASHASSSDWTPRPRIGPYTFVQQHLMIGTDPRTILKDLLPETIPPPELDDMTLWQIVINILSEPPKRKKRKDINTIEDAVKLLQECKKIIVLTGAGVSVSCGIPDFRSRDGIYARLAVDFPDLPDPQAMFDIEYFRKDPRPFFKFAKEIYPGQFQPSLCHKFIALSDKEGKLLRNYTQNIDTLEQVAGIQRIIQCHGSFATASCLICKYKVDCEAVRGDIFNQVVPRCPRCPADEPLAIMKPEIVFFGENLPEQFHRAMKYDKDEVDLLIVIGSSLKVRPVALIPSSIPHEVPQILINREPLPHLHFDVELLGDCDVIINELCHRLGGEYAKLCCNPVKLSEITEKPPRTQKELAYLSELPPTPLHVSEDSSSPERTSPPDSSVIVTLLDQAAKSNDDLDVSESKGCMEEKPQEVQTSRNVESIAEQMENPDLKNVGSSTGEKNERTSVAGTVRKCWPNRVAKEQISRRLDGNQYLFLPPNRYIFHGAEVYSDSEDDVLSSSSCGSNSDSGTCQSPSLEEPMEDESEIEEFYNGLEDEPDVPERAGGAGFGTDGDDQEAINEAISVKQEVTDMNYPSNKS

[3] = biological target: T1, NAD-dependent protein deacetylase sirtuin-2 (Homo sapiens); assay: Inhibition of recombinant SIRT2 assessed as lysine deacetylation at 10 uM relative to control; design: scale not given: the % may be the effect or the level left
[4] = biological target: T3, NAD-dependent protein deacetylase sirtuin-3, mitochondrial (Homo sapiens) (UniProt Q9NTG7); assay: Inhibition of recombinant SIRT3 assessed as lysine deacetylation at 10 uM relative to control
T3 sequence (whole entry): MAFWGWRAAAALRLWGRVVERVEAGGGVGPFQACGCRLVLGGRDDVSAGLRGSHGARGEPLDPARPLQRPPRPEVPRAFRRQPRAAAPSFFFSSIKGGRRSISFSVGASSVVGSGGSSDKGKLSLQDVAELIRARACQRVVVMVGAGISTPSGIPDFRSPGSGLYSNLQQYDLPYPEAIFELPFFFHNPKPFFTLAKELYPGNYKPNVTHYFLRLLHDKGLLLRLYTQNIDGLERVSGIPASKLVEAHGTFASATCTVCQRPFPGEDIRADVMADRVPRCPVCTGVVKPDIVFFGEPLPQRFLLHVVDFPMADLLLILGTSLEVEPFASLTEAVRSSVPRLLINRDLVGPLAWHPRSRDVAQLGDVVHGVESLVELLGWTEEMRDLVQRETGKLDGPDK

[5] = biological target: T2, NAD-dependent protein deacetylase sirtuin-1 (Homo sapiens); assay: Inhibition of recombinant SIRT1 assessed as lysine deacetylation up to 50 uM
[6] = biological target: T3, NAD-dependent protein deacetylase sirtuin-3, mitochondrial (Homo sapiens); assay: Inhibition of recombinant SIRT3 assessed as lysine deacetylation up to 50 uM
[7] = biological target: T1, NAD-dependent protein deacetylase sirtuin-2 (Homo sapiens); assay: Inhibition of recombinant SIRT2 assessed as lysine deacetylation at 1 to 50 uM
[8] = biological target: T1, NAD-dependent protein deacetylase sirtuin-2 (Homo sapiens); assay: Inhibition of recombinant SIRT2 assessed as lysine deacetylation at 6.25 to 25 uM
[9] = biological target: T1, NAD-dependent protein deacetylase sirtuin-2 (Homo sapiens); assay: Inhibition of recombinant SIRT2 assessed as lysine deacetylation at 50 uM relative to control; design: scale not given: the % may be the effect or the level left

Activity [1]: 82%
Compound: CCN(c1ccc(Br)cc1)S(=O)(=O)c1cccc(C(=O)Nc2ccc(Br)cc2)c1

inhibition [5]: inactive | inhibition [6]: inactive | inhibition [7]: Active | inhibition [8]: Active
Compound: CN(C(=O)c1cccc(S(=O)(=O)N(C)c2ccc(Br)cc2)c1)c1ccc(Br)cc1

Activity [9]: 57%
Compound: CN(C(=O)c1cccc(S(=O)(=O)N(C)c2ccc(Br)cc2)c1)c1ccc(F)cc1

inhibition [2]: inactive | inhibition [4]: 5% | inhibition [7]: Active
Compound: CN(C(=O)c1cccc(S(=O)(=O)N(C)c2ccc(Cl)cc2)c1)c1ccc(Cl)cc1

Activity [1]: 92%
Compound: C=CCN(c1ccc(Br)cc1)S(=O)(=O)c1cccc(C(=O)Nc2ccc(Br)cc2)c1

Second part, the molecule before the results:

Compound: CN(C(=O)c1cccc(S(=O)(=O)N(C)c2ccc(C(F)(F)F)cc2)c1)c1ccc(Br)cc1
inhibition [2]: inactive | Activity [3]: 55% | inhibition [4]: inactive

Compound: O=C(Nc1cccc([N+](=O)[O-])c1)c1cccc(S(=O)(=O)N2CCCCCC2)c1
inhibition [5]: Active

Compound: O=C(Nc1ccc(Br)cc1)c1cccc(S(=O)(=O)N(Cc2ccccc2)c2ccc(Br)cc2)c1
Activity [1]: 80%

Compound: CN(C(=O)c1cccc(S(=O)(=O)N(C)c2ccc(Br)cc2)c1)c1ccc(C(F)(F)F)cc1
Activity [9]: 76%

Compound: CN(c1ccc(Br)cc1)S(=O)(=O)c1cccc(C(=O)Nc2ccc(Br)cc2)c1
inhibition [5]: inactive | inhibition [6]: inactive | Activity [1]: 56% | inhibition [8]: Active

Compound: CN(C(=O)c1cccc(S(=O)(=O)N(C)c2ccc(Br)cc2)c1)c1ccc(Cl)cc1
inhibition [2]: inactive | Activity [3]: 54% | inhibition [4]: inactive | inhibition [7]: Active

Compound: O=C(Nc1ccc(Br)cc1)c1cccc(S(=O)(=O)Nc2ccc(Br)cc2)c1
Activity [1]: 85%

Compound: CN(C(=O)c1cccc(S(=O)(=O)N(C)c2ccc(Cl)cc2)c1)c1ccc(Br)cc1
Activity [3]: 72%
